Reference: patent US20240165077A1, “COMPOSITIONS AND METHODS FOR TREATING NEUROLOGIC DISEASES” (Cognition Therapeutics, Inc., priority 2021, published 2024)
Like-named read-outs stand apart in the source and are kept apart here.

What was measured:
[1] = test system: α-synuclein oligomers (α-synO) binding to neuronal synapses; assay: Displacement of alpha-synuclein oligomers: α-synO binding to neuronal synapses (ASYO5 immunostaining); format: cell-based, Rat; conditions: 24 hours; for α-synO binding to neuronal synapses: synthetic α-synO, FIG. 1D/1E
Description: FIG. 1A is a representative image of a neuron culture with a seeding control (7.1 nM) treated with a vehicle for 24 hours. Cultures were immunostained for the neurite marker microtubule associated protein 2 (MAP2; green) and for α-synuclein oligomers using an alpha-synuclein, oligomer-specific antibody (ASYO5 antibody, Agrisera; red). No α-synOs are present in the vehicle treated cultures.
FIG. 1B is a representative image of a neuron culture treated with synthetic α-synuclein oligomers (1 μM) for 24 hours and immunostained for the neurite marker microtubule associated protein 2 (MAP2; green) and for α-synuclein oligomers using an alpha-synuclein, oligomer-specific antibody (ASYO5 antibody, Agrisera; red).
FIG. 1C is a representative image of a neuron culture treated with synthetic α-synuclein oligomers (1 μM) and Compound A:
(10 μM) for 24 hours and immunostained for the neurite marker microtubule associated protein 2 (MAP2; green) and for α-synuclein oligomers using an alpha-synuclein, oligomer-specific antibody (ASYO5 antibody, Agrisera; red).
FIG. 1D is a graphical representation of binding affinity of α-synuclein oligomers (α-SynO) to neuronal synapses after treatment with vehicle (α-SynO) or treatment with Compound B
FIG. 1E is a graphical representation of binding affinity of α-synuclein oligomers (α-SynO) to neuronal synapses after treatment with vehicle (α-SynO) or treatment with Compound A
(§1) Rat neuronal cultures were treated with vehicle (an a seeding control (7.1 nM) without α-synuclein oligomers (α-synOs)) or synthetic α-synOs for 24 hours. Cultures were immunostained for the neurite marker microtubule associated protein 2 (MAP2; green) and for α-synOs using an alpha-synuclein, oligomer-specific antibody (ASYO5 antibody, Agrisera; red).

α-synuclein = assay: Animal models of Parkinson's disease (AAV1/2 A53T-α-synuclein overexpression; intrastriatal α-synuclein preformed fibrils); format: in vivo, rat; conditions: both models of Parkinson's disease
From the text: Examples include models of overexpression of α-synuclein or models that mimic the propagation of α-synuclein throughout the brain. One such overexpression model is the rat AAV1/2 A53T-α-synuclein model (Koprich, J. B., Johnston, T. H., Huot, P., Reyes, M. G., Espinosa, M., Brotchie, J. M., “Progressive neurodegeneration or endogenous compensation in an animal model of Parkinson's disease produced by decreasing doses of alpha-synuclein,” PLoS One, 6:1-9 (2011), which is hereby incorporated herein by reference in its entirety), where induction of α-synuclein overexpression is accompanied by loss of nigral dopaminergic cells, lower dopamine transporter levels, lower dopamine levels and motor deficits. Another example uses intrastriatal injection of preformed fibrils of α-synuclein to model propagation of Parkinson's pathology throughout the brain (Duffy, M. F., Collier, T. J., Patterson, J. R., Kemp, C. J., Fischer D. L., Stoll, A. C., Sortwell, C. E., “Quality over quantity: Advantages of using alpha-synuclein preformed fibrils triggered synucleinopathy to model idiopathic Parkinson's disease,” Front Neurosci, 12:1-10 (2018) and Patterson, J. R., Duffy, M. F., Kemp, C. J., Howe, J. W., Collier, T. J., Stoll, A. C., Miller, K. M., Patel, P., Levine, N., Moore, D. J., Luk, K. C., Fleming, S. M., Kanaan, N. M, Paumier, K. L., El Agnaf, O. M. A., Sortwell, C. […]

[2] = test system: α-synO-induced vesicle trafficking deficits; assay: Vesicle trafficking in neuronal cultures treated with α-synuclein oligomers; format: cell-based, Rat; conditions: α-synOs 1.0 μM final concentration; for Emax / EC50: Rattus norvegicus; for Emax: FIG. 1F/1G, read-out: Emax, amelioration of α-synO vesicle trafficking deficit; for EC50: read-out: EC50, amelioration of α-synO vesicle trafficking deficit
Description: FIG. 1F is a graphical representation of vesicular trafficking in untreated control cultures, cultures treated with α-synuclein oligomers (α-SynO) for 24 hours, or cultures treated with α-synuclein oligomers (α-SynO) and Compound B
FIG. 1G is a graphical representation of vesicular trafficking in untreated control cultures, cultures treated with α-synuclein oligomers (α-SynO) for 24 hours, or cultures treated with α-synuclein oligomers (α-SynO) and Compound A
as §1
Untreated vehicle control cultures without any α-SynO addition lack α-synO immunoreactivity (FIG. 1A). […] FIGS. 1D, 1E, 1F, 1G: * p<0.05, **p<0.01, […], ****p<0.001, one-way ANOVA for drug concentration vs control with Dunnett's post-test.

With `CC(C)(C)Oc1cc(CCC(C)(C)N2Cc3ccc(S(C)(=O)=O)cc3C2)ccc1O` [Compound A] the “punctate binding of α-synOs along neurites” value ([1]; 1 μM α-synO, compound 10 μM, FIG. 1B/1C) was “punctate binding of α-synOs along neurites in the absence (FIG. 1B) but not presence”, the “α-synO binding to neuronal synapses” value [1] was “block α-synO binding to neuronal synapses in a concentration-dependent manner” and the “deficits characteristic of Parkinson's disease and their propagation throughout the brain” value (α-synuclein) was “reduces some or all deficits that are characteristic of Parkinson's disease”. For the same molecule, the Emax [2] was 87%, the EC50 ([2]; FIG. 1G) was 650 nM and the “rescue of α-synO-induced trafficking deficits” value [2] was “rescue α-synO-induced trafficking deficits in a concentration-dependent manner”.

For `CC(C)=C[C@@H](CC(C)(C)c1ccc(C(F)(F)F)cc1)N1CCC(C2CCOCC2)CC1` [Compound B], the “α-synO binding to neuronal synapses” value [1] was “block α-synO binding to neuronal synapses in a concentration-dependent manner”, the “deficits characteristic of Parkinson's disease and their propagation throughout the brain” value (α-synuclein) was “reduces some or all deficits that are characteristic of Parkinson's disease” and the Emax [2] was 92%. The EC50 ([2]; FIG. 1F) was 310 nM and the “rescue of α-synO-induced trafficking deficits” value [2] was “rescue α-synO-induced trafficking deficits in a concentration-dependent manner”.
